Experiments:
UACC-257 = experiment: Growth inhibition of human UACC-257 cells at 10 uM relative to control; type: functional; details: read-out: GI
HCT-15 = experiment: Growth inhibition of human HCT-15 cells at 10 uM relative to control; type: functional; details: read-out: GI
SR = experiment: Growth inhibition of human SR cells at 10 uM relative to control; type: functional; details: read-out: GI
UO-31 = experiment: Growth inhibition of human UO-31 cells at 10 uM relative to control; type: functional; details: read-out: GI
M14 = experiment: Growth inhibition of human M14 cells at 10 uM relative to control; type: functional; details: read-out: GI
OVCAR-4 = experiment: Growth inhibition of human OVCAR-4 cells at 10 uM relative to control; type: functional; details: read-out: GI
MCF7 = experiment: Growth inhibition of human MCF7 cells at 10 uM relative to control; type: functional; details: read-out: GI
SN12C = experiment: Growth inhibition of human SN12C cells at 10 uM relative to control; type: functional; details: read-out: GI
DNA = experiment: Displacement of methyl green from DNA (unknown origin) assessed as DNA intercalation after 24 hrs by colorimetric assay; type: nucleic-acid assay
A498 = experiment: Growth inhibition of human A498 cells at 10 uM relative to control; type: functional; details: read-out: GI
PC-3 = experiment: Growth inhibition of human PC-3 cells at 10 uM relative to control; type: functional; details: read-out: GI
HCC 2998 = experiment: Growth inhibition of human HCC 2998 cells at 10 uM relative to control; type: functional; details: read-out: GI
IGROV-1 = experiment: Growth inhibition of human IGROV-1 cells at 10 uM relative to control; type: functional; details: read-out: GI
NCI-H226 = experiment: Growth inhibition of human NCI-H226 cells at 10 uM relative to control; type: functional; details: read-out: GI
NCI-H522 = experiment: Growth inhibition of human NCI-H522 cells at 10 uM relative to control; type: functional; details: read-out: GI
NCI-H460 = experiment: Growth inhibition of human NCI-H460 cells at 10 uM relative to control; type: functional; details: read-out: GI
SK-MEL-5 = experiment: Growth inhibition of human SK-MEL-5 cells at 10 uM relative to control; type: functional; details: read-out: GI
SW-620 = experiment: Growth inhibition of human SW-620 cells at 10 uM relative to control; type: functional; details: read-out: GI
HOP-62 = experiment: Growth inhibition of human HOP-62 cells at 10 uM relative to control; type: functional; details: read-out: GI
SK-MEL-28 = experiment: Growth inhibition of human SK-MEL-28 cells at 10 uM relative to control; type: functional; details: read-out: GI
MDA-MB-231 = experiment: Growth inhibition of human MDA-MB-231 cells at 10 uM relative to control; type: functional; details: read-out: GI
Hs-578T = experiment: Growth inhibition of human Hs-578T cells at 10 uM relative to control; type: functional; details: read-out: GI
BT-549 = experiment: Growth inhibition of human BT-549 cells at 10 uM relative to control; type: functional; details: read-out: GI
SNB-75 = experiment: Growth inhibition of human SNB-75 cells at 10 uM relative to control; type: functional; details: read-out: GI
NCI-H23 = experiment: Growth inhibition of human NCI-H23 cells at 10 uM relative to control; type: functional; details: read-out: GI
OVCAR-5 = experiment: Growth inhibition of human OVCAR-5 cells at 10 uM relative to control; type: functional; details: read-out: GI
RXF 393 = experiment: Growth inhibition of human RXF 393 cells at 10 uM relative to control; type: functional; details: read-out: GI
K562 = experiment: Growth inhibition of human K562 cells at 10 uM relative to control; type: functional; details: read-out: GI
MOLT-4 = experiment: Growth inhibition of human MOLT-4 cells at 10 uM relative to control; type: functional; details: read-out: GI
MDA-MB-435 = experiment: Growth inhibition of human MDA-MB-435 cells at 10 uM relative to control; type: functional; details: read-out: GI

CC1=CN2C(=NC(/C=C/c3ccc(Cl)cc3)=CC2c2ccc(Cl)cc2)S1 (stereo not given)
< 10%: inhibition of growth at 10 µM (UACC-257) | inhibition of growth at 10 µM (HCT-15) | inhibition of growth at 10 µM (SR) | inhibition of growth at 10 µM (UO-31) | inhibition of growth at 10 µM (M14) | inhibition of growth at 10 µM (OVCAR-4) | inhibition of growth at 10 µM (MCF7) | inhibition of growth at 10 µM (SN12C) | inhibition of growth at 10 µM (PC-3) | inhibition of growth at 10 µM (HCC 2998) | inhibition of growth at 10 µM (IGROV-1) | inhibition of growth at 10 µM (NCI-H226) | inhibition of growth at 10 µM (NCI-H522) | inhibition of growth at 10 µM (NCI-H460) | inhibition of growth at 10 µM (SK-MEL-5) | inhibition of growth at 10 µM (SW-620) | inhibition of growth at 10 µM (HOP-62) | inhibition of growth at 10 µM (SK-MEL-28) | inhibition of growth at 10 µM (MDA-MB-231) | inhibition of growth at 10 µM (Hs-578T) | inhibition of growth at 10 µM (BT-549) | inhibition of growth at 10 µM (NCI-H23) | inhibition of growth at 10 µM (OVCAR-5) | inhibition of growth at 10 µM (RXF 393) | inhibition of growth at 10 µM (K562) | inhibition of growth at 10 µM (MOLT-4) | inhibition of growth at 10 µM (MDA-MB-435)
17.3%: inhibition of growth at 10 µM (SNB-75)
12.3%: inhibition of growth at 10 µM (A498)
45.18 µg/mL: IC50 (DNA)
